According to ChEMBL document CHEMBL1201862, “PubChem BioAssay data set” (2004):
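Where inhibition never reached the appropriate level, the endpoint shown equals the highest concentration tested. Otherwise, values were interpolated linearly from a five-concentration, 48-hour dose response in 96-well plates. GI50 marks 50% less growth.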 Activity calls are given as the source filed them. Cut-off read from the data, not from the text of the source: active = GI50 up to about 1.1 µM and inactive = higher.

Tests used:
Assay in all cases: NCI tumour cell line growth inhibition, 48 h
[1] = tested on: A549
[2] = tested on: ACHN
[3] = tested on: EKVX
[4] = tested on: HCT-116
[5] = tested on: HOP-92
[6] = tested on: K562
[7] = tested on: LOX IMVI
[8] = tested on: M14
[9] = tested on: MDA-MB-435
[10] = tested on: MDA-N
[11] = tested on: Malme-3M
[12] = tested on: NCI-H226
[13] = tested on: OVCAR-3
[14] = tested on: PC-3
[15] = tested on: RXF 393
[16] = tested on: SF-295
[17] = tested on: SK-MEL-28
[18] = tested on: SNB-19
[19] = tested on: T47D
[20] = tested on: U-251

Compound | GI50 [1] | GI50 [2] | GI50 [3] | GI50 [4] | GI50 [5] | GI50 [6] | GI50 [7] | GI50 [8] | GI50 [9] | GI50 [10] | GI50 [11] | GI50 [12] | GI50 [13] | GI50 [14] | GI50 [15] | GI50 [16] | GI50 [17] | GI50 [18] | GI50 [19] | GI50 [20]
Cc1ccc(-c2nc(-c3nccc4ccccc34)oc2-c2ccccc2)cc1 | 40.6 µM (inactive) | 92.9 µM (inactive) | 20.6 µM (inactive) | 20.2 µM (inactive) | 30.3 µM (inactive) | 55.1 µM (inactive) | 20.3 µM (inactive) | 24.9 µM (inactive) | 64.9 µM (inactive) | 38.7 µM (inactive) | 96.4 µM (inactive) | > 100 µM (inactive) | 56.1 µM (inactive) | > 100 µM (inactive) | 33.4 µM (inactive) | 68.4 µM (inactive) | > 100 µM (inactive) | > 100 µM (inactive) | 68.2 µM (inactive) | 72.9 µM (inactive)
CCOc1ccc2c(c1)C(/C(C(Cl)=C(Cl)Cl)=[N+](/[O-])OC(=O)c1ccccc1)=N2 | 47 µM (inactive) | 73.1 µM (inactive) | 15.4 µM (inactive) | 46 µM (inactive) | 38.1 µM (inactive) | 38.7 µM (inactive) | 57.9 µM (inactive) | 58.7 µM (inactive) | 29.6 µM (inactive) | 37 µM (inactive) | > 100 µM (inactive) | 37.3 µM (inactive) | 30.8 µM (inactive) | 30.9 µM (inactive) | 47.8 µM (inactive) | 49.7 µM (inactive) | > 100 µM (inactive) | 93.1 µM (inactive) | 26 µM (inactive) | 46.7 µM (inactive)
COC(=O)C(Cc1ccccc1)NP(=O)(O)OCC1OC(n2cc(Br)c(=O)[nH]c2=O)CC1O (stereo not given) | > 100 µM (inactive) | > 100 µM (inactive) | > 100 µM (inactive) | > 100 µM (inactive) | > 100 µM (inactive) | > 100 µM (inactive) | > 100 µM (inactive) | > 100 µM (inactive) | > 100 µM (inactive) | > 100 µM (inactive) | > 100 µM (inactive) | > 100 µM (inactive) | > 100 µM (inactive) | > 100 µM (inactive) | > 100 µM (inactive) | > 100 µM (inactive) | > 100 µM (inactive) | > 100 µM (inactive) | > 100 µM (inactive) | > 100 µM (inactive)
COC(=O)[C@]1(C)CCC[C@]2(C)[C@H]3CC[C@]4(C(C)C)OO[C@@H](O4)[C@]34O[C@@H]4C[C@H]21 | 1.81 µM (inactive) | 0.56 µM (active) | 1.87 µM (inactive) | 1.63 µM (inactive) | 1.97 µM (inactive) | 1.99 µM (inactive) | 0.35 µM (active) | 4.8 µM (inactive) | 1.79 µM (inactive) | 2.22 µM (inactive) | 6.68 µM (inactive) | 4.49 µM (inactive) | 1.8 µM (inactive) | 1.48 µM (inactive) | 4.28 µM (inactive) | 3.63 µM (inactive) | 16.3 µM (inactive) | 10.8 µM (inactive) | 1.76 µM (inactive) | 3.65 µM (inactive)
CCOC(=O)c1c(N2CCOCC2)[nH]c(=O)c(C(c2ccco2)c2c(O)c(C(=O)OCC)c(N3CCOCC3)[nH]c2=O)c1O | > 100 µM (inactive) | > 100 µM (inactive) | > 100 µM (inactive) | > 100 µM (inactive) | 80.9 µM (inactive) | > 100 µM (inactive) | > 100 µM (inactive) | > 100 µM (inactive) | > 100 µM (inactive) | > 100 µM (inactive) | > 100 µM (inactive) | > 100 µM (inactive) | > 100 µM (inactive) | > 100 µM (inactive) | > 100 µM (inactive) | > 100 µM (inactive) | > 100 µM (inactive) | > 100 µM (inactive) | > 100 µM (inactive) | > 100 µM (inactive)
